{"source": "patent US12077503B2", "about": "“Substituted cyclic amides and their use as herbicides” (FMC CORPORATION, priority 2015, dated 2024)", "type_in_all_cases": "in vivo", "key": {"[1]": {"tested_on": "Kochia (Kochia scoparia)", "assay": "Test A postemergence", "conditions": "Bassia scoparia, post-emergence, 240 h", "method_in_brief": "(§1)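 Seeds sprayed preemergence with a directed soil spray, or plants at 2 to 10 cm height and one- to two-leaf stage sprayed postemergence, with test chemicals in a non-phytotoxic solvent mixture containing surfactant, in loam soil–sand blend. Injury rated visually against untreated controls after about 10 d in greenhouse, 0 (no effect) to 100 (complete control).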"}, "[2]": {"tested_on": "Galium (catchweed bedstraw, Galium aparine)", "assay": "Test A postemergence", "conditions": "Galium, post-emergence, 240 h", "method_in_brief": "as §1"}, "[3]": {"tested_on": "wheat (Triticum aestivum)", "assay": "Test A postemergence", "conditions": "Triticum aestivum, post-emergence, 240 h", "method_in_brief": "as §1"}, "[4]": {"tested_on": "ragweed (common ragweed, Ambrosia elatior)", "assay": "Test A postemergence", "conditions": "Ambrosia artemisiifolia, post-emergence, 240 h", "method_in_brief": "as §1"}, "[5]": {"tested_on": "giant foxtail (Setaria faberii)", "assay": "Test A postemergence", "conditions": "Setaria faberi, post-emergence, 240 h", "method_in_brief": "as §1"}, "[6]": {"tested_on": "ryegrass, Italian (Italian ryegrass, Lolium multiflorum)", "assay": "Test A postemergence", "conditions": "Lolium multiflorum, post-emergence, 240 h", "method_in_brief": "as §1"}, "[7]": {"tested_on": "pigweed (Amaranthus retroflexus)", "assay": "Test A postemergence", "conditions": "Amaranthus retroflexus, post-emergence, 240 h", "method_in_brief": "as §1"}, "[8]": {"tested_on": "blackgrass (Alopecurus myosuroides)", "assay": "Test A postemergence", "conditions": "Alopecurus myosuroides, post-emergence, 240 h", "method_in_brief": "as §1"}, "[9]": {"tested_on": "corn (Zea mays)", "assay": "Test A postemergence", "conditions": "Zea mays, post-emergence, 240 h", "method_in_brief": "as §1"}, "[10]": {"tested_on": "barnyardgrass (Echinochloa crus-galli)", "assay": "Test A postemergence", "conditions": "Echinochloa crus-galli, post-emergence, 240 h", "method_in_brief": "as §1"}, "[11]": {"tested_on": "Kochia (Kochia scoparia)", "assay": "Test A preemergence", "conditions": "Bassia scoparia, pre-emergence, 240 h, 0 to 100 scale where 0 is no effect and 100 is complete control, read-out: Kochia plant response rating", "method_in_brief": "as §1"}, "[12]": {"tested_on": "ragweed (common ragweed, Ambrosia elatior)", "assay": "Test A preemergence", "conditions": "Ambrosia artemisiifolia, pre-emergence, 240 h, 0 to 100 scale where 0 is no effect and 100 is complete control, read-out: Ragweed plant response rating", "method_in_brief": "as §1"}, "[13]": {"tested_on": "giant foxtail (Setaria faberii)", "assay": "Test A preemergence", "conditions": "Setaria faberi, pre-emergence, 240 h, 0 to 100 scale where 0 is no effect and 100 is complete control, read-out: Foxtail, Giant plant response rating", "method_in_brief": "as §1"}, "[14]": {"tested_on": "ryegrass, Italian (Italian ryegrass, Lolium multiflorum)", "assay": "Test A preemergence", "conditions": "Lolium multiflorum, pre-emergence, 240 h, 0 to 100 scale where 0 is no effect and 100 is complete control, read-out: Ryegrass, Italian plant response rating", "method_in_brief": "as §1"}, "[15]": {"tested_on": "pigweed (Amaranthus retroflexus)", "assay": "Test A preemergence", "conditions": "Amaranthus retroflexus, pre-emergence, 240 h, 0 to 100 scale where 0 is no effect and 100 is complete control, read-out: Pigweed plant response rating"}, "[16]": {"tested_on": "barnyardgrass (Echinochloa crus-galli)", "assay": "Test A preemergence", "conditions": "Echinochloa crus-galli, pre-emergence, 240 h, 0 to 100 scale where 0 is no effect and 100 is complete control, read-out: Barnyardgrass plant response rating", "method_in_brief": "as §1"}, "[17]": {"tested_on": "ducksalad (Heteranthera limosa)", "assay": "Test B flooded paddy test", "conditions": "Heteranthera limosa, 250 g ai/ha, Flood; 0 to 100 scale where 0 is no effect and 100 is complete control; read-out: Ducksalad plant response rating", "method_in_brief": "(§2)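 Flooding to 3 cm over soil accompanied treatment, which consisted of adding compound to the standing water around 2-leaf plants; depth was then maintained. Visual assessment versus controls followed at 13 to 15 d (scale 0–100, 0 meaning no effect).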"}, "[18]": {"tested_on": "sedge, umbrella (small-flower umbrella sedge, Cyperus difformis)", "assay": "Test B flooded paddy test", "conditions": "Cyperus difformis, 250 g ai/ha, Flood; 0 to 100 scale where 0 is no effect and 100 is complete control; read-out: Sedge, Umbrella plant response rating", "method_in_brief": "as §2"}, "[19]": {"tested_on": "rice (Oryra sativa)", "assay": "Test B flooded paddy test", "conditions": "Oryza sativa, 250 g ai/ha, Flood; 0 to 100 scale where 0 is no effect and 100 is complete control; read-out: Rice plant response rating", "method_in_brief": "as §2"}, "[20]": {"tested_on": "barnyardgrass (Echinochloa crus-galli)", "assay": "Test B flooded paddy test", "conditions": "Echinochloa crus-galli, 250 g ai/ha, Flood; 0 to 100 scale where 0 is no effect and 100 is complete control; read-out: Barnyardgrass plant response rating", "method_in_brief": "as §2"}, "[21]": {"conditions": "125 g ai/ha, preemergence, approx. 10 d"}}}
{"compound": "CN1C[C@H](c2ccc(C(F)(F)F)nc2)[C@@](C)(C(=O)Nc2ccc(F)c(F)c2F)C1=O", "note": "[Compound 1110]", "values": [{"measurement": "pest or weed control at 125 g/ha", "setting": "[1]; 125 g ai/ha, postemergence, visual injury on 0 to 100 scale (0 no effect, 100 complete control), approx. 10 d, read-out: Kochia plant response rating", "value": 70, "unit": "%"}, {"measurement": "pest or weed control at 31 g/ha", "setting": "[1]; Postemergence, 31 g ai/ha, visual injury after approx. 10 d, 0 to 100 scale, 0 no effect, 100 complete control, read-out: Plant response rating, Kochia", "value": 30, "unit": "%"}, {"measurement": "pest or weed control at 125 g/ha", "setting": "[2]; 125 g ai/ha, postemergence, visual injury on 0 to 100 scale (0 no effect, 100 complete control), approx. 10 d, read-out: Galium plant response rating", "value": 50, "unit": "%"}, {"measurement": "pest or weed control at 31 g/ha", "setting": "[2]; Postemergence, 31 g ai/ha, visual injury after approx. 10 d, 0 to 100 scale, 0 no effect, 100 complete control, read-out: Plant response rating, Galium", "value": 20, "unit": "%"}, {"measurement": "plant injury at 125 g/ha", "setting": "[3]; 125 g ai/ha, postemergence, visual injury on 0 to 100 scale (0 no effect, 100 complete control), approx. 10 d, read-out: Wheat plant response rating", "value": 70, "unit": "%"}, {"measurement": "plant injury at 31 g/ha", "setting": "[3]; Postemergence, 31 g ai/ha, visual injury after approx. 10 d, 0 to 100 scale, 0 no effect, 100 complete control, read-out: Plant response rating, Wheat", "value": 30, "unit": "%"}, {"measurement": "pest or weed control at 125 g/ha", "setting": "[4]; 125 g ai/ha, postemergence, visual injury on 0 to 100 scale (0 no effect, 100 complete control), approx. 10 d, read-out: Ragweed plant response rating", "value": 30, "unit": "%"}, {"measurement": "pest or weed control at 31 g/ha", "setting": "[4]; Postemergence, 31 g ai/ha, visual injury after approx. 10 d, 0 to 100 scale, 0 no effect, 100 complete control, read-out: Plant response rating, Ragweed", "value": 0, "unit": "%"}, {"measurement": "pest or weed control at 125 g/ha", "setting": "[5]; 125 g ai/ha, postemergence, visual injury on 0 to 100 scale (0 no effect, 100 complete control), approx. 10 d, read-out: Foxtail, Giant plant response rating", "value": 90, "unit": "%"}, {"measurement": "pest or weed control at 31 g/ha", "setting": "[5]; Postemergence, 31 g ai/ha, visual injury after approx. 10 d, 0 to 100 scale, 0 no effect, 100 complete control, read-out: Plant response rating, Foxtail, Giant", "value": 60, "unit": "%"}, {"measurement": "pest or weed control at 125 g/ha", "setting": "[6]; 125 g ai/ha, postemergence, visual injury on 0 to 100 scale (0 no effect, 100 complete control), approx. 10 d, read-out: Ryegrass, Italian plant response rating", "value": 60, "unit": "%"}, {"measurement": "pest or weed control at 31 g/ha", "setting": "[6]; Postemergence, 31 g ai/ha, visual injury after approx. 10 d, 0 to 100 scale, 0 no effect, 100 complete control, read-out: Plant response rating, Ryegrass, Italian", "value": 40, "unit": "%"}, {"measurement": "pest or weed control at 125 g/ha", "setting": "[7]; 125 g ai/ha, postemergence, visual injury on 0 to 100 scale (0 no effect, 100 complete control), approx. 10 d, read-out: Pigweed plant response rating", "value": 50, "unit": "%"}, {"measurement": "pest or weed control at 31 g/ha", "setting": "[7]; Postemergence, 31 g ai/ha, visual injury after approx. 10 d, 0 to 100 scale, 0 no effect, 100 complete control, read-out: Plant response rating, Pigweed", "value": 20, "unit": "%"}, {"measurement": "pest or weed control at 125 g/ha", "setting": "[8]; 125 g ai/ha, postemergence, visual injury on 0 to 100 scale (0 no effect, 100 complete control), approx. 10 d, read-out: Blackgrass plant response rating", "value": 60, "unit": "%"}, {"measurement": "pest or weed control at 31 g/ha", "setting": "[8]; Postemergence, 31 g ai/ha, visual injury after approx. 10 d, 0 to 100 scale, 0 no effect, 100 complete control, read-out: Plant response rating, Blackgrass", "value": 0, "unit": "%"}, {"measurement": "plant injury at 125 g/ha", "setting": "[9]; 125 g ai/ha, postemergence, visual injury on 0 to 100 scale (0 no effect, 100 complete control), approx. 10 d, read-out: Corn plant response rating", "value": 80, "unit": "%"}, {"measurement": "Corn plant response rating (crop injury, 0 = no effect, 100 = complete kill) at 31 g/ha", "setting": "[9]; Postemergence, 31 g ai/ha, visual injury after approx. 10 d, 0 to 100 scale, 0 no effect, 100 complete control", "value": 30, "unit": "%"}, {"measurement": "pest or weed control at 125 g/ha", "setting": "[10]; 125 g ai/ha, postemergence, visual injury on 0 to 100 scale (0 no effect, 100 complete control), approx. 10 d, read-out: Barnyardgrass plant response rating", "value": 90, "unit": "%"}, {"measurement": "pest or weed control at 31 g/ha", "setting": "[10]; Postemergence, 31 g ai/ha, visual injury after approx. 10 d, 0 to 100 scale, 0 no effect, 100 complete control, read-out: Plant response rating, Barnyardgrass", "value": 80, "unit": "%"}, {"measurement": "pest or weed control at 31 g/ha", "setting": "[11]; 31 g ai/ha, Preemergence", "value": 0, "unit": "%"}, {"measurement": "pest or weed control at 125 g/ha", "setting": "[11]; [21]", "value": 70, "unit": "%"}, {"measurement": "pest or weed control at 31 g/ha", "setting": "[12]; 31 g ai/ha, Preemergence", "value": 0, "unit": "%"}, {"measurement": "pest or weed control at 125 g/ha", "setting": "[12]; [21]", "value": 40, "unit": "%"}, {"measurement": "pest or weed control at 31 g/ha", "setting": "[13]; 31 g ai/ha, Preemergence", "value": 90, "unit": "%"}, {"measurement": "pest or weed control at 125 g/ha", "setting": "[13]; [21]", "value": 100, "unit": "%"}, {"measurement": "pest or weed control at 31 g/ha", "setting": "[14]; 31 g ai/ha, Preemergence", "value": 30, "unit": "%"}, {"measurement": "pest or weed control at 125 g/ha", "setting": "[14]; [21]", "value": 50, "unit": "%"}, {"measurement": "pest or weed control at 31 g/ha", "setting": "[15]; 31 g ai/ha, Preemergence", "value": 60, "unit": "%"}, {"measurement": "pest or weed control at 125 g/ha", "setting": "[15]; [21]", "value": 90, "unit": "%"}, {"measurement": "pest or weed control at 31 g/ha", "setting": "[16]; 31 g ai/ha, Preemergence", "value": 90, "unit": "%"}, {"measurement": "pest or weed control at 125 g/ha", "setting": "[16]; [21]", "value": 100, "unit": "%"}, {"measurement": "pest or weed control at 250 g/ha", "setting": "[17]", "value": 100, "unit": "%"}, {"measurement": "pest or weed control at 250 g/ha", "setting": "[18]", "value": 0, "unit": "%"}, {"measurement": "pest or weed control at 250 g/ha", "setting": "[19]", "value": 50, "unit": "%"}, {"measurement": "pest or weed control at 250 g/ha", "setting": "[20]", "value": 90, "unit": "%"}]}
